Results on 105 molecules are retold here after PubChem BioAssay AID1996.

Converted amounts (≈) assume the structure as drawn.

For this data set the following is noted: buffer; pH 7.4; 200.0 µM.
In the case of `CCN(CC(=O)NCc1ccc(F)cc1)CC(=O)NC1CCCC1`, the kinetic solubility – broadly, the concentration staying in solution when a stock, usually in DMSO, is diluted into the medium – is more than 50.3 µg/mL.
For `Cc1cc(NC(=O)Nc2cc(Cl)sc2Cl)no1` the value was less than 0.2 µg/mL.
For `O=C(CCNC(=O)c1ccc(Cl)cc1)Nc1ncccc1O`, the solubility (kinetic) is 45 µg/mL (≈ 141 µM).
Consider `CCCCc1nc(C(N)=O)c2[nH]c(=O)n(-c3ccccc3F)c2n1`, for which the kinetic solubility was 3.7 µg/mL (≈ 11.2 µM).
With `CC(C)(C)C(=O)OCc1nc(-c2ccc(F)cc2)cs1`, the kinetic solubility was less than 0.6 µg/mL.
On to `Cc1ccc(CN(C)C(=O)c2ccccc2Sc2ccccc2C#N)cc1`, for which the solubility (kinetic) was 14.7 µg/mL (≈ 39.5 µM).
On to `COc1ccc(S(=O)(=O)Nc2ccccn2)cc1C`, for which the solubility (kinetic) was more than 41.7 µg/mL.
Consider `CCOC(=O)C(=O)N1CCN(c2ccccc2OC)CC1`, for which the kinetic solubility is more than 43.9 µg/mL.
Molecule `CN(c1ccccc1)S(=O)(=O)c1ccc2[nH]c(=O)oc2c1` returned a kinetic solubility of more than 45.6 µg/mL.
The molecule `O=C(COC(=O)CC1CC2CCC1C2)NCc1ccc(Cl)cc1` (stereo not given) gave a kinetic solubility of 6.2 µg/mL (≈ 18.5 µM).
For the molecule `COc1ccc(C2=NOC(C(=O)NCc3cccnc3)C2)cc1` (stereo not given), the kinetic solubility was more than 46.7 µg/mL.
For `OCCC1CN(CC2CCCCC2)CCN1C1CCCC1` (stereo not given) the value was 40.8 µg/mL (≈ 139 µM).
Consider `CCC(C)c1ccccc1NC(=S)NC(=O)c1ccco1` (stereo not given), for which the kinetic solubility amounted to 6 µg/mL (≈ 19.8 µM).
As for `O=C(Nc1ccc2ccccc2n1)c1ccc(Cl)cc1`, the solubility (kinetic) was less than 0.3 µg/mL.
As to `O=C(OCC(=O)N1CCN(c2ccccc2)CC1)c1ccc[n+]([O-])c1`, the solubility (kinetic) is 44.5 µg/mL (≈ 130 µM).
`O=C(c1cccs1)N1CCN=C1SCc1cccc(F)c1`: the solubility (kinetic) was less than 0.3 µg/mL.
Molecule `O=C(O)c1cc([N+](=O)[O-])ccc1NCCCc1ccccc1` displayed a solubility (kinetic) of more than 45 µg/mL.
Take `COc1ccc(C2=C(c3ccc([N+](=O)[O-])cc3)C(=O)OC2)cc1`: the kinetic solubility was 3.4 µg/mL (≈ 10.9 µM).
`CS(=O)(=O)Nc1ccccc1NS(C)(=O)=O` came in with a solubility (kinetic) of more than 39.6 µg/mL.
Take `CCOc1ccc(C(=O)CCC(=O)Nc2ccccc2C)cc1`: the kinetic solubility stood at 4.6 µg/mL (≈ 14.8 µM).
In turn, `CC(C)(C)c1ccc(NC(=O)Nc2ccc3ccccc3n2)cc1` showed a solubility (kinetic) of less than 0.2 µg/mL.
On to `CCN(CC)S(=O)(=O)c1ccc(N2CCCC2)c(NC(=O)c2ccc([N+](=O)[O-])o2)c1`, for which the solubility (kinetic) came to 49.4 µg/mL (≈ 113 µM).
For `COc1ccc(C2(C)NC(=O)N(CC(=O)NC3CC3)C2=O)cc1` (stereo not given), the solubility (kinetic) amounted to 43.3 µg/mL (≈ 136 µM).
For `Cc1ccc(C(=O)N2CCN(c3nc4ccccc4n3C)CC2)cc1` the value was more than 50.2 µg/mL; for `CC(C)Cn1cnc2c1c(=O)[nH]c(=O)n2Cc1ccccc1`, 32.7 µg/mL (≈ 110 µM).
The molecule `CCN(CC)CC1C(=O)N(c2ccc(OC)cc2)C1c1ccccc1` (stereo not given) yielded a kinetic solubility of more than 50.8 µg/mL.
As to `COC(=O)CC(c1ccc(C(C)C)cc1)n1cccc1` (stereo not given), the solubility (kinetic) came out at 2.5 µg/mL (≈ 9.21 µM).
On to `Cc1cccc(NC(=O)Nc2ccccc2[N+](=O)[O-])n1`, for which the kinetic solubility was found to be 0.3 µg/mL (≈ 1.1 µM).
`CSc1ncc(C(=O)Nc2cc(C)ccc2C)c(C)n1` had a solubility (kinetic) of more than 43.1 µg/mL.
In turn, `O=Cc1cn(CC(=O)N2CCCCCC2)c2ccccc12` showed a kinetic solubility of more than 42.7 µg/mL.
Turning to `CC(=O)COc1nc2c(c(-c3ccco3)c1C#N)CCc1ccccc1-2`, the kinetic solubility came to 1.7 µg/mL (≈ 4.94 µM).
For the molecule `N#C/C(=C\c1ccccc1)C(=O)Nc1ccccn1`, the kinetic solubility is more than 37.4 µg/mL.
Take `Cc1cccc(Cn2nc(C(C)(C)C)cc2C(=O)N2CCOCC2)c1`: the kinetic solubility is more than 51.2 µg/mL.
For `COc1cc(Cl)c(C)cc1NC(=O)CSC1=NCCS1` the value was 11 µg/mL (≈ 33.2 µM); for `CC(C)c1ccc(N2C(=O)C3C4C=CC(CC4)C3C2=O)cc1` (stereo not given), 2.7 µg/mL (≈ 9.14 µM).
For `CN1CCN(S(=O)(=O)c2cc([N+](=O)[O-])ccc2Cl)CC1` the value was more than 48 µg/mL; for `COc1cc(/C=C(\C#N)c2nc3ccccc3[nH]2)ccc1O`, 4.9 µg/mL (≈ 16.8 µM).
For `O=C(COC(=O)c1ccccc1)NC1CCCC1` the value was more than 37.1 µg/mL; for `COc1ccc(C)cc1NC(=O)C(=O)N1CCCC1`, 39.1 µg/mL (≈ 149 µM).
Consider `CC(C)(C)C(=O)Nc1ccc(/C=C/C(=O)c2ccco2)cc1`, for which the kinetic solubility was 28.9 µg/mL (≈ 97.2 µM).
In turn, `COc1cc2c(cc1OC)CC(=O)NC=C2` gave a solubility (kinetic) of more than 32.9 µg/mL.
For `Cc1ccccc1C(=O)NCC(=O)Nc1ccccc1C(F)(F)F` the value was more than 50.4 µg/mL; for `FC(F)(F)c1ccnc(Oc2ccc(C3=NCCS3)cc2)c1`, 2.2 µg/mL (≈ 6.78 µM).
For `Cc1cc(C)c(OCCCCCn2ccnc2)c(C)c1` the value was more than 40.9 µg/mL; for `Cc1ccc(OC(=O)c2ccncc2)c(C)c1`, 23.9 µg/mL (≈ 105 µM).
For `COc1ccc(CNc2nc3ccccc3n2C)c(OC)c1` the value was more than 44.6 µg/mL.
Take `CSc1sc(C#N)c2c1/C(=N\O)CCC2`: the kinetic solubility came to 1 µg/mL (≈ 4.2 µM).
For `Cc1c(C)n(-c2ccccc2)c2ncnc(NCCN(C)C)c12` the value was more than 46.4 µg/mL; for `COc1cc2c(cc1OC)C(c1ccccc1F)NCC2` (stereo not given), more than 43.1 µg/mL.
For `CCC1(c2ccccc2)NC(=O)N(CC(=O)Nc2ccc(N3CCOCC3)cc2)C1=O` (stereo not given) the value was more than 63.4 µg/mL.
For the molecule `CCCCNC(=S)Nc1ccc2[nH]c(=O)[nH]c2c1`, the kinetic solubility is 18.4 µg/mL (≈ 69.6 µM).
For `COCCNC(=S)Nc1ccccc1Cc1ccccc1` the value was 13.7 µg/mL (≈ 45.6 µM); for `NS(=O)(=O)c1ccc(CNC(=O)c2ccccn2)cc1`, more than 43.7 µg/mL; for `Cc1ccc(NC(=O)CNC(=O)OCc2ccccc2)cc1C`, 10.3 µg/mL (≈ 33 µM).
Molecule `CCC1CCCCN1C(=O)CSc1nc(N)cc(N)n1` (stereo not given) returned a kinetic solubility of 43.1 µg/mL (≈ 146 µM).
In turn, `CN(C)c1ccc(C2NC(=O)c3ccccc3N2)cc1` (stereo not given) gave a kinetic solubility of 8.8 µg/mL (≈ 32.9 µM).
For the molecule `Cc1cc(Cc2ccc([N+](=O)[O-])cc2)c(C)cn1`, the kinetic solubility is more than 36.3 µg/mL.
`CCN1C(=O)c2ccc(C(=O)Nc3c(C)cc(C)cc3C)cc2C1=O`: the kinetic solubility was less than 0.4 µg/mL.
For `CNC(=O)COC(=O)/C=C/c1ccco1` the value was more than 31.4 µg/mL.
As to `C/C(=N\S(=O)(=O)c1ccc(C)cc1)NC(=S)Nc1ccccc1`, the solubility (kinetic) worked out at 2.1 µg/mL (≈ 6.04 µM).
Consider `CCOc1ccc(C(=O)N2CCN(c3ccccn3)CC2)cc1OCC`, for which the solubility (kinetic) is more than 53.3 µg/mL.
For `Cc1onc(-c2ccccc2Cl)c1C(=O)N1CCCC1`, the kinetic solubility is more than 43.6 µg/mL.
For `CSC1=NCCN1C(=O)c1ccc2ccccc2c1` the value was 1.9 µg/mL (≈ 7.03 µM); for `COc1ccccc1NC(=O)c1cc(Cl)nnc1Cl`, more than 44.7 µg/mL.
For `CC(=O)Nc1cc(-c2nc3ccccc3o2)ccc1Cl`, the solubility (kinetic) amounted to 1.6 µg/mL (≈ 5.58 µM).
For `CC(C)c1onc(C(=O)Nc2cccc(O)c2)c1[N+](=O)[O-]` the value was 37.4 µg/mL (≈ 128 µM); for `O=C(c1cc2cc(Cl)ccc2o1)N1CCCC1`, 29.6 µg/mL (≈ 119 µM).
As for `Cc1cccc(C)c1Nc1ncnc2ccccc12.Cl`, the solubility (kinetic) was more than 42.9 µg/mL.
For `CCc1ncc(C)nc1CC` the value was 6.7 µg/mL (≈ 44.6 µM).
In the case of `Nc1c(Cl)ncnc1NCc1ccccc1`, the solubility (kinetic) turned out to be 32.6 µg/mL (≈ 139 µM).
Turning to `COc1cc(NC(=O)CN2C(=O)NC(CC(C)C)C2=O)cc(OC)c1OC` (stereo not given), the kinetic solubility was more than 56.9 µg/mL.
For `Cc1[nH]c(SCC(=O)Nc2cc(C(N)=O)cc(C(N)=O)c2)nc1Cc1ccccc1` the value was more than 63.5 µg/mL.
For `N#C/C(=C\c1ccc([N+](=O)[O-])cc1)c1ccccn1` the value was 4.7 µg/mL (≈ 18.7 µM); for `O=C(O)/C=C/C(=O)NCCCc1ccccc1`, 19.8 µg/mL (≈ 84.9 µM).
With `Cc1ccc2c(c1)C(=O)C(=O)N2CCCOc1ccccc1`, the kinetic solubility was determined as 2.7 µg/mL (≈ 9.14 µM).
For the molecule `CC(=O)Nc1ccc(CC#N)cc1`, the solubility (kinetic) was more than 26.1 µg/mL.
`O=C(Nc1nc(-c2ccc(F)cc2)cs1)c1cccnc1` yielded a kinetic solubility of 0.6 µg/mL (≈ 2 µM).
Consider `Cc1ccc(S(=O)(=O)N2CCCC(C(=O)NCC3CCCO3)C2)cc1` (stereo not given), for which the solubility (kinetic) was more than 55 µg/mL.
For `Cc1ccc(F)cc1NC(=O)N1CCCN(C(=O)OC(C)(C)C)CC1`, the kinetic solubility came out at 46.9 µg/mL (≈ 133 µM).
The molecule `O=c1[nH]c2ccccc2nc1-c1c[nH]c2ccccc12` came in with a solubility (kinetic) of 0.2 µg/mL (≈ 0.765 µM).
In the case of `COc1cc([N+](=O)[O-])ccc1Nc1nc(C)cc(C)n1.Cl`, the solubility (kinetic) worked out at 0.5 µg/mL.
For `CCOC(=O)c1ccc(NC(=O)c2cc(C)nc3ccccc23)cc1` the value was less than 0.4 µg/mL.
`CC(=O)N1CC(=O)N(c2ccccc2)C1=O` showed a kinetic solubility of more than 32.7 µg/mL.
For the molecule `COc1ccc(C(=O)NCC(=O)OCC(=O)NCc2ccco2)cc1`, the kinetic solubility is more than 52 µg/mL.
With `CCN1CCN(c2nc(-c3ccccc3)c3ccccc3n2)CC1`, the solubility (kinetic) stood at 46.1 µg/mL (≈ 145 µM).
With `Cc1cc(=O)oc(C)c1C(=O)NC1CCCCCCC1`, the kinetic solubility worked out at 11.8 µg/mL (≈ 42.5 µM).
For `Cc1cccn2c(=O)nc(SCC(=O)N3CC(C)OC(C)C3)nc12` (stereo not given) the value was 51.7 µg/mL (≈ 148 µM); for `O=C(Cc1ccc(F)cc1)NC(Cc1c[nH]c2ccccc12)C(=O)O` (stereo not given), 46.6 µg/mL (≈ 137 µM); for `CCN1CCN(C(=O)C2COc3ccccc3O2)CC1` (stereo not given), more than 41.5 µg/mL.
For `COc1ccc(NC(=O)Nc2ccc3c(c2)CCC3)c(OC)c1` the value was less than 0.3 µg/mL.
Molecule `O=S(=O)(N=C(NS(=O)(=O)c1ccc(Cl)cc1)c1ccccc1)c1ccc(Cl)cc1` showed a kinetic solubility of more than 70.4 µg/mL.
In turn, `Cc1cccc(OCCCn2c(=O)oc3ccccc32)c1` returned a solubility (kinetic) of 4.6 µg/mL (≈ 16.2 µM).
`O=C(Cc1ccccc1)NCCc1c[nH]c2ccccc12.O=C(O)C(=O)O` returned a kinetic solubility of 47.8 µg/mL.
The molecule `COc1ccc(C2(C#N)CCC(=O)N2c2ccccc2)cc1` (stereo not given) registered a kinetic solubility of 40.9 µg/mL (≈ 140 µM).
With `Cc1c(-c2csc(N)n2)c2ccccc2n1C`, the solubility (kinetic) worked out at 30.4 µg/mL (≈ 125 µM).
On to `COc1ccc(CNC(=O)C(Cc2ccccc2)n2cccc2)cc1` (stereo not given), for which the solubility (kinetic) was found to be 7.8 µg/mL (≈ 23.3 µM).
In turn, `CCOC(=O)C1CCN(C/C=C/c2ccccc2)CC1` displayed a solubility (kinetic) of 27.2 µg/mL (≈ 99.5 µM).
Regarding `CCOC(=O)C1=C(C)NC(=O)NC1c1ccc([N+](=O)[O-])o1` (stereo not given), the kinetic solubility was found to be 42.7 µg/mL (≈ 145 µM).
Take `O=C(O)C1C2CCC(O2)C1C(=O)Nc1cccc(Br)c1` (stereo not given): the kinetic solubility is 50.7 µg/mL (≈ 149 µM).
`Cc1cc(NC(=O)CN2CCN(c3cccc(Cl)c3)CC2)no1` returned a solubility (kinetic) of 45.5 µg/mL (≈ 136 µM).
The molecule `COCCNC(=O)c1oc2ccc3c(c2c1C)C(O)CC(C)(C)O3` (stereo not given) had a solubility (kinetic) of more than 50 µg/mL.
`O=C(Cn1cnc2c(oc3ccccc32)c1=O)N1CCCC1`: the solubility (kinetic) is more than 44.6 µg/mL.
On to `COc1cc2c(cc1OC)-c1cc(Nc3ccccc3C)nc(=O)n1CC2`, for which the kinetic solubility worked out at 49.3 µg/mL (≈ 136 µM).
Molecule `Cc1ccc(C(=O)CNc2ccc(C)cc2C)cc1` registered a kinetic solubility of 2.8 µg/mL (≈ 11.1 µM).
The molecule `O=C(NCc1cccnc1)C(=O)Nc1nccs1` displayed a solubility (kinetic) of 20.4 µg/mL (≈ 77.8 µM).
